Results taken from patent publication US20150105252A1, “SUBSTITUTED PYRAZOLES AS HERBICIDES” (E I DU PONT DE NEMOURS AND COMPANY, priority 2013, published 2015).

Legend:
pigweed [1] = assay: Test A preemergence; assay type: in vivo, Amaranthus retroflexus; conditions: preemergence
Procedure, shortened: (§1)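 Greenhouse test in loam soil/sand blend; compounds formulated in non-phytotoxic solvent with surfactant, applied as preemergence directed soil spray or postemergence to plants 2–10 cm tall at one- to two-leaf stage. Injury rated visually versus untreated controls after approximately 10 days on a 0 (no effect) to 100 (complete control) scale.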

velvetleaf = assay: Test A preemergence; assay type: in vivo, Abutilon theophrasti; conditions: preemergence
Procedure, shortened: as §1

barnyardgrass = assay: Test B flood; assay type: in vivo, Echinochloa crus-galli; conditions: 250 g ai/ha, visual rating on 0 to 100 scale (0 no effect, 100 complete control), 13 to 15 days
Procedure, shortened: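 At two leaves, seedlings received the test compound via the paddy water, pots having been flooded 3 cm over the soil surface and kept so. Greenhouse-held for 13 to 15 days, then judged by eye against controls on a scale running 0 (no effect) to 100 (complete control).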

ryegrass, Italian = assay: Test C preemergence; assay type: in vivo, Lolium multiflorum; conditions: for Ryegrass, Italian plant response rating: preemergence
Procedure, shortened: (§2)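 Visual rating, 0–100 scale (0 no effect, 100 complete control), vs untreated controls after 13–15 d greenhouse. Pre: seeds in loam/sand, treated at sowing. Post: plants in peat-based mix, 1- to 4-leaf (2–18 cm). Solvent + surfactant formulation, non-phytotoxic.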

wheat [2] = assay: Test C preemergence; assay type: in vivo, Triticum aestivum; conditions: for Wheat plant response rating: preemergence
Procedure, shortened: as §2

galium = assay: Test C preemergence; assay type: in vivo, Galium aparine; conditions: for Galium plant response rating: preemergence
Procedure, shortened: as §2

oilseed rape = assay: Test C preemergence; assay type: in vivo, Brassica napus; conditions: for Oilseed Rape plant response rating: preemergence
Procedure, shortened: as §2

wheat [3] = assay: Test C postemergence; assay type: in vivo, Triticum aestivum
Procedure, shortened: as §2

corn = assay: Test C postemergence; assay type: in vivo, Zea mays
Procedure, shortened: as §2

johnsongrass = assay: Test C postemergence; assay type: in vivo, Sorghum halepense
Procedure, shortened: as §2

pigweed [4] = assay: Test C postemergence; assay type: in vivo, Amaranthus retroflexus
Procedure, shortened: as §2

ragweed = assay: Test C postemergence; assay type: in vivo, Ambrosia elation
Procedure, shortened: as §2

soybean = assay: Test C postemergence; assay type: in vivo, Glycine max
Procedure, shortened: as §2

chickweed = assay: Test C postemergence; assay type: in vivo, Stellaria media
Procedure, shortened: as §2

[5] = 125 g ai/ha, visual injury, 0 to 100 scale, approx. 10 days
[6] = 500 g ai/ha, visual injury after approx. 10 days, 0 to 100 scale (0 no effect, 100 complete control)
[7] = 31 g ai/ha, visual rating, scale 0 to 100 (0 no effect, 100 complete control), 13 to 15 days
[8] = 62 g ai/ha, scale 0 to 100 (0 no effect, 100 complete control), 13 to 15 days
[9] = 125 g ai/ha, scale 0 to 100, 0 is no effect, 100 is complete control
[10] = Postemergence, 31 g ai/ha, visually evaluated after 13 to 15 days
[11] = postemergence, 62 g ai/ha, scale 0 to 100
[12] = postemergence, 250 g ai/ha, scale 0 to 100 (0 no effect, 100 complete control)
[13] = postemergence, 125 g ai/ha, scale 0 to 100, 0 no effect, 100 complete control

SMILES: CCCc1cc(C(=O)NCC(F)(F)F)nn1Cc1ccnc(C(F)(F)F)c1 [Compound 105]
- Pigweed plant response rating (pigweed [1]; [5]): 100
- Pigweed plant response rating (pigweed [1]; [6]): 100
- Velvetleaf plant response rating (velvetleaf; [5]): 100
- Velvetleaf plant response rating (velvetleaf; [6]): 100
- Plant response rating, Barnyardgrass (barnyardgrass): 90
- Plant response rating (scale of 0 to 100), Ryegrass, Italian (ryegrass, Italian; Preemergence, 250 g ai/ha): 95
- Ryegrass, Italian plant response rating (ryegrass, Italian; [7]): 85
- Ryegrass, Italian plant response rating (ryegrass, Italian; [8]): 95
- Ryegrass, Italian plant response rating (ryegrass, Italian; [9]): 95
- Plant response rating (scale of 0 to 100), Wheat (wheat [2]; Preemergence, 250 g ai/ha): 90
- Wheat plant response rating (wheat [2]; [7]): 75
- Wheat plant response rating (wheat [2]; [8]): 85
- Wheat plant response rating (wheat [2]; [9]): 90
- Plant response rating (scale of 0 to 100), Galium (galium; Preemergence, 250 g ai/ha): 100
- Galium plant response rating (galium; [7]): 100
- Galium plant response rating (galium; [8]): 100
- Galium plant response rating (galium; [9]): 100
- Plant response rating (scale of 0 to 100), Oilseed Rape (oilseed rape; Preemergence, 250 g ai/ha): 100
- Oilseed Rape plant response rating (oilseed rape; [7]): 95
- Oilseed Rape plant response rating (oilseed rape; [8]): 95
- Oilseed Rape plant response rating (oilseed rape; [9]): 95
- Plant response rating (scale of 0 to 100 where 0 is no effect and 100 is complete control), Wheat (wheat [3]; [10]): 5
- Wheat plant response rating (wheat [3]; [11]): 5
- Plant response rating, Wheat (wheat [3]; [12]): 45
- Plant response rating, Wheat (wheat [3]; [13]): 10
- Plant response rating (scale of 0 to 100 where 0 is no effect and 100 is complete control), Corn (corn; [10]): 15
- Corn plant response rating (corn; [11]): 40
- Plant response rating, Corn (corn; [12]): 85
- Plant response rating, Corn (corn; [13]): 60
- Plant response rating (scale of 0 to 100 where 0 is no effect and 100 is complete control), Johnsongrass (johnsongrass; [10]): 5
- Johnsongrass plant response rating (johnsongrass; [11]): 35
- Plant response rating, Johnsongrass (johnsongrass; [12]): 75
- Plant response rating, Johnsongrass (johnsongrass; [13]): 45
- Plant response rating (scale of 0 to 100 where 0 is no effect and 100 is complete control), Pigweed (pigweed [4]; [10]): 75
- Pigweed plant response rating (pigweed [4]; [11]): 85
- Plant response rating, Pigweed (pigweed [4]; [12]): 90
- Plant response rating, Pigweed (pigweed [4]; [13]): 85
- Plant response rating (scale of 0 to 100 where 0 is no effect and 100 is complete control), Ragweed (ragweed; [10]): 30
- Ragweed plant response rating (ragweed; [11]): 40
- Plant response rating, Ragweed (ragweed; [12]): 80
- Plant response rating, Ragweed (ragweed; [13]): 65
- Plant response rating (scale of 0 to 100 where 0 is no effect and 100 is complete control), Soybean (soybean; [10]): 80
- Soybean plant response rating (soybean; [11]): 80
- Plant response rating, Soybean (soybean; [12]): 95
- Plant response rating, Soybean (soybean; [13]): 95
- Plant response rating (scale of 0 to 100 where 0 is no effect and 100 is complete control), Chickweed (chickweed; [10]): 90
- Chickweed plant response rating (chickweed; [11]): 90
- Plant response rating, Chickweed (chickweed; [12]): 95
- Plant response rating, Chickweed (chickweed; [13]): 95
